According to BigSolDB 2.1:

CC(=O)N[C@@H](C)C(=O)O
solubility (mole fraction)
Details | 283.15 K | 288.15 K | 293.15 K | 298.15 K | 303.15 K | 308.15 K | 313.15 K | 318.15 K | 323.15 K
in 2-butanone | 0.0111 | 0.0132 | 0.0161 | 0.0186 | 0.0215 | 0.026 | 0.03 | 0.0358 | 0.0437
in acetone | 0.0224 | 0.028 | 0.0329 | 0.0372 | 0.0446 | 0.0524 | 0.0638 | 0.0819 | 0.103
in acetonitrile | 0.00594 | 0.00727 | 0.00871 | 0.0114 | 0.0136 | 0.0177 | 0.0226 | 0.0312 | 0.0385
in dimethyl carbonate | 0.00223 | 0.00261 | 0.00319 | 0.00376 | 0.00449 | 0.00543 | 0.00668 | 0.00841 | 0.0103
in ethanol | 0.111 | 0.127 | 0.138 | 0.156 | 0.174 | 0.198 | 0.217 | 0.235 | 0.267
in ethyl acetate | 0.00433 | 0.00521 | 0.0062 | 0.00718 | 0.00806 | 0.00947 | 0.0112 | 0.0131 | 0.0156
in isobutanol | 0.0571 | 0.063 | 0.0718 | 0.0798 | 0.0916 | 0.107 | 0.12 | 0.132 | 0.145
in isopentanol | 0.0527 | 0.0563 | 0.0636 | 0.0713 | 0.0823 | 0.0949 | 0.108 | 0.125 | 0.139
in isopropanol | 0.0781 | 0.0901 | 0.1 | 0.113 | 0.13 | 0.148 | 0.162 | 0.175 | 0.195
in methyl acetate | 0.00578 | 0.00705 | 0.00861 | 0.00997 | 0.0114 | 0.0135 | 0.0162 | 0.0196 | 0.0242
in n-butanol | 0.0633 | 0.0707 | 0.0784 | 0.0869 | 0.0982 | 0.114 | 0.127 | 0.143 | 0.157
in n-butyl acetate | 0.00354 | 0.00382 | 0.00417 | 0.00455 | 0.00504 | 0.00573 | 0.00654 | 0.00771 | 0.00892
in n-pentanol | 0.0516 | 0.0546 | 0.0621 | 0.0695 | 0.0805 | 0.0915 | 0.106 | 0.12 | 0.137
in n-propanol | 0.0858 | 0.0937 | 0.104 | 0.118 | 0.133 | 0.153 | 0.168 | 0.186 | 0.213
in n-propyl acetate | 0.003 | 0.00352 | 0.00421 | 0.00495 | 0.00558 | 0.00642 | 0.00755 | 0.00913 | 0.0109
in sec-butanol | 0.068 | 0.0759 | 0.0892 | 0.101 | 0.113 | 0.129 | 0.144 | 0.161 | 0.175
